Literature values, collected in patent US20140322356A1, “CTC BIOMARKER ASSAY TO COMBAT BREAST CANCER BRAIN METASTASIS” (Baylor College of Medicine, priority 2011, published 2014).

Tests used:
[1] = system: MDA-MB-435 carcinoma cells; settings: MDA-MB-435 cells selected for metastatic growth in the brain
heparanase (HPSE) = molecular target: T1, heparanase (HPSE) (Homo sapiens, UniProt Q9Y251); settings: statement from literature, no value given
T1 sequence (Q9Y251 36-543): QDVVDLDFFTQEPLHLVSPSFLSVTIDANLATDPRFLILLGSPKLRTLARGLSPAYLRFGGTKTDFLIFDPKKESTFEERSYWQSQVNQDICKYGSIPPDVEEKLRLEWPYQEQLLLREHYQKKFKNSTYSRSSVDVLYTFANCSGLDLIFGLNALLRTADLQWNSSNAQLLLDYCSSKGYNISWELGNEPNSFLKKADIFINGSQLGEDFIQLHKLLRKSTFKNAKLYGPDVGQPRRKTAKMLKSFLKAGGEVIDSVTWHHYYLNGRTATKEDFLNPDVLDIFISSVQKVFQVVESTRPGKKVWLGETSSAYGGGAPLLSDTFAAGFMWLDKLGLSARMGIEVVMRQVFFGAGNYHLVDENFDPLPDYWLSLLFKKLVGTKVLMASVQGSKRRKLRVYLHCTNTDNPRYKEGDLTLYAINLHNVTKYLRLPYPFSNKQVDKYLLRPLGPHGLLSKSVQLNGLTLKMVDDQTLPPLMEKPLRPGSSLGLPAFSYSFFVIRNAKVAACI

Compound | tumor cell migration and invasion in vitro [1] | inhibition of heparanase (heparanase (HPSE))
C[C@H](NC(=O)Cc1cc(F)cc(F)c1)C(=O)N[C@H](C(=O)OC(C)(C)C)c1ccccc1 [DAPT] | inhibited | 
Heparin |  | inhibitor of HPSE
